# Source: PubChem BioAssay AID179 (DTP/NCI, 2004)
# The source made the active and inactive calls.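 The calls were made as follows: active = compounds giving half or more protection of infected cells from virus-caused growth loss, again on retest; inactive = the rest.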 *1 amine or outer side, *2 acyl side, *3 side chain or, on linkers, in order; H or OH if unused. Where a SMILES comes first, the peptide text is derived from it. [ ]: non-standard residue; d: D form. The star is where a group is joined. X7 = NC(N)=NCC(O)CC(N[*:1])C(=O)[*:2]; Orn = NCCC[CH](N)C(=O)O; OBn = c1ccc(CO*)cc1
# Test system: CEM cells HIV-1 protection, formazan growth assay
# Assay: NCI AIDS Antiviral Assay
# Details: for IC50: measured here: growth of uninfected CEM cells
# Procedure, shortened: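 Human CEM cells, uninfected and HIV-1-infected, received five drug concentrations, and growth was read by soluble formazan assay. Compounds giving at least 50% protection were retested; reproducible 100% protection defined confirmed active.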
SMILES,EC50 [µM],IC50 [µM],outcome
O=c1c(O)c(-c2ccc(O)c(O)c2)oc2cc(O)cc(O)c12.[Zr],> 200,> 200,
CC[C@]12C=CCN3CCC4(c5cc([C@]6(C(=O)OC)C[C@H]7CN(CCc8c6[nH]c6ccccc86)CC6CCCCC67)c(OC)cc5N(C)C4[C@@](O)(C(=O)OC)C1OC(C)=O)[C@@H]32 (some centres not stated),> 89.1,1.7,
CCOC(=O)CNc1c(OCc2ccccc2)c(=O)c1=O,> 200,> 200,
COc1cc2cc(C(=O)N3CC(CCl)c4c3cc(N(C)C)c3ccccc43)[nH]c2c(OC)c1OC (configuration not stated),> 0.2,0.0129,
CCN(CC)CC(=O)Nc1c(C)ccc(N)c1C,> 200,> 200,
Cc1ccc(S(=O)(=O)N/N=C2\CC3C4CCC3C2C4)cc1 (configuration not stated),> 200,> 200,
CC(=O)NC(C(=O)N1CCCC1C(=O)OCc1ccccc1)C(C)C (stereo not drawn) (Ac-Val-Pro-OBn; configuration not given here),> 200,112,
CCOc1csc([C@H]2CCC3[C@@H]4CC=C5C[C@@H](OC(=O)CCC(=O)O)CC[C@]5(C)C4CC[C@@]32C)n1 (some centres not stated),> 50.1,33.9,
COC(=O)c1cc(C(=CCCc2ccccc2)c2cc(Br)c(OC)c(C(=O)OC)c2)cc(Br)c1OC,> 200,11.2,
O=C(Nc1ccc(Cl)c(Cl)c1)NN1CCCCCC1,,,inactive
Cc1cc(CC(O)(C(F)(F)F)C(F)(F)F)cc(CC(O)(C(F)(F)F)C(F)(F)F)n1,,,inactive
CNc1ncc2nc(C(=O)O)c(=O)n(C)c2n1,> 200,> 200,
Cc1ccccc1NC(=O)C(=O)CC(=O)c1sc(Nc2ccccc2[N+](=O)[O-])nc1C,> 200,> 200,
N#Cc1c(O)c(/C=N/c2ncccn2)c(=O)n2c1[nH]c1ccccc12,> 200,> 200,
COc1cccc(NC(=S)Nn2c(C)nc3ccccc3c2=O)c1,> 105,> 105,
CCCc1cc(=O)oc2c3c(cc(OC(C)C)c12)O[C@H](C)[C@@H](C)C3=O,77.6,120,
N#CCCN(CCC#N)c1ccc(/C=C2\N=C(c3cc([N+](=O)[O-])ccc3Cl)N(S(=O)(=O)c3ccccc3)C2=O)cc1,> 12.3,> 12.3,
Cc1ccc(-c2c(C#N)c(-c3ccc(N(C)C)cc3)c(C#N)c(=O)n2NS(=O)(=O)c2ccccc2)cc1,> 200,18.2,
O=C1CC2c3[nH]c4ccccc4c3CCN2C2=C1CCCC2 (configuration not stated),> 200,10.2,
O=C1c2cccc3cc([N+](=O)[O-])cc(c23)C(=O)N1CCCN1CCN(CCCNc2ccc3ncn4c5ccccc5c(=O)c2c34)CC1,> 0.00501,0.0049,
Clc1ccccc1CN1COc2c(cc(Cl)c3cccnc23)C1,> 87.1,4.57,
CC(O)C(NC(=O)C(CCCN)NC(=O)C(CC(O)CN=C(N)N)NC(=O)C(N)CCCN=C(N)N)C(=O)NC(CCCN)C(=O)NC(CC(O)CN=C(N)N)C(=O)NC(Cc1ccc(O)cc1)C(=O)O (configuration not stated) (H-R[X7][Orn]T[Orn][X7]Y-OH; configuration not given here),> 245,174,
O=C(/C=C/c1cccc(Br)c1)c1ccccc1,> 13.2,> 13.2,
COc1ccc(/C=N/NS(=O)(=O)c2ccc(NC(C)=O)cc2)cc1,> 525,> 525,
CCOP(=O)(OCC)C(Nc1ccc(Br)cc1)c1cccc([N+](=O)[O-])c1 (configuration not stated),,,inactive
N#C/C(=C\c1cccc(Br)c1)C(=O)c1ccccc1,> 115,50.1,
O=c1ccc(=O)n(CO)[nH]1,> 1780,97.7,
COc1ccc(/C=N/NS(=O)(=O)c2ccc(/C=C3\NC(=O)N(C)C3=O)cc2)cc1,> 200,> 200,
COC(=O)CC(C(C(=O)OCc1ccccc1)C(C)O)N1C(=O)OC(c2ccccc2)C1c1ccccc1 (configuration not stated),> 251,> 251,
CO[C@@H]1C2OC(C)(C)OC2O[C@@H]1C1OC[C@H]2O[C@@H](n3ccc(=O)[nH]c3=O)C(O)[C@H]2N1O (some centres not stated),> 200,148,
